Test results published in patent US11655492B2, “Activated formylglycine-generating enzymes and methods of producing and using the same” (R.P. Scherer Technologies, LLC, priority 2015, dated 2023).
Entries after “also recorded” stand apart in the source; their conditions may differ.

Experiments:
Sc-FGE = Sc-FGE (Streptomyces coelicolor, UniProt Q9F3C7); format: biochemical, S. coelicolor
Hs-cFGE = biological target: T1, Hs-cFGE (Homo sapiens, UniProt Q8NBK3)
T1 sequence (Q8NBK3 with tags, fused parts or gaps isoform Q8NBK3-4): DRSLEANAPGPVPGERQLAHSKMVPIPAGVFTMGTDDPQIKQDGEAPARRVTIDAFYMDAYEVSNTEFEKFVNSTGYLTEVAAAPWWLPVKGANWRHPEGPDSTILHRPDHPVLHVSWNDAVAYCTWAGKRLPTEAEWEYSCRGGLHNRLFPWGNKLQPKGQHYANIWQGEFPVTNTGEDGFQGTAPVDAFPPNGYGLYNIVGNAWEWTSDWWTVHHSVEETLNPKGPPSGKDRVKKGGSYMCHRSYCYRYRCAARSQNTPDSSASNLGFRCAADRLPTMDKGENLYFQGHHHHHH

FGE = biological target: T2, FGE (Homo sapiens, UniProt Q8NBK3); experiment: FGE reaction mixtures with reductants or additives (product formation); format: biochemical; conditions: additive in the in vitro FGE reaction mixture
T2 construct: made in house
T2 sequence (Q8NBK3 with tags, fused parts or gaps isoform Q8NBK3-4): T1 sequence (Q8NBK3 with tags, fused parts or gaps isoform Q8NBK3-4)
Description: The specific activity of FGE was measured using a discontinuous enzymatic activity assay. […] The rate of reaction was determined by integrating the peak areas at 215 nm of the substrate cysteine (Csub) and product (fGly) peptides on reversed-phase HPLC. […] Each aqueous reaction solution (120 μL) contained Csub (100 μM), FGE (0.1-1 μM), DTT (1 mM), and buffer (25 mM TEAM, pH 9). A single time course included 5 data points collected at evenly spaced intervals. The reaction was initiated upon addition of FGE stock solution and vortexing for 3 s. The reaction vial was vortexed at 1,500 RPM and 25° C. in a thermomixer R (Eppendorf). Time points were hand quenched by adding 20 μL of reaction mixture to 2 μL of 1 M HCl using a micropipettor. After completion of the reaction, each time point was analyzed by RP-HPLC (see below).
The conversion of Cys to fGly used a 2 H^+/2 e^− oxidation of the substrate Cys thiol as well as exchange of sulfur for oxygen. […] However, because O2 is a 4 H^+/4 e^− acceptor, a reducing agent was used to provide a second equivalent of 2 H^+ and 2 e^−, completing the reduction from O2 to 2 mol H2O. […] A mixture of reductant (DTT) and O2 was used for routine activity measurements.

Sc-FGE, sequence (Q9F3C7 whole entry): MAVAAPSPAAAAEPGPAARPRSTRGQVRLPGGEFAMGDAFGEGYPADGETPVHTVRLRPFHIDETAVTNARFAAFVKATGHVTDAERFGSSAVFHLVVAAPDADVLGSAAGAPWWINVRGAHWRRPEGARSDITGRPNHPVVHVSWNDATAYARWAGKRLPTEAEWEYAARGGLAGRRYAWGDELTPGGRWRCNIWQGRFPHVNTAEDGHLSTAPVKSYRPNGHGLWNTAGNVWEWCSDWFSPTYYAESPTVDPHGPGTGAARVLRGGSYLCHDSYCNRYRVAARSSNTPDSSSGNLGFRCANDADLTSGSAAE

Row | Structure (SMILES) | effect of pretreatment of activated enzyme on specific activity (Sc-FGE) | effect of pretreatment of activated enzyme on catalytic activity (Hs-cFGE; copper-treated Hs-cFGE, EDTA 5 molar equiv or KCN) | effect on product formation when added directly to the reaction (FGE) | effect of treatment on specific activity (Hs-cFGE)
1 | O=C(O)CN(CCN(CC(=O)O)CC(=O)O)CC(=O)O [EDTA, Ethylenediaminetetraacetic acid] | do not change; also recorded: did not change | did not change | – | –
2 | OO [H2O2, hydrogen peroxide] | – | – | halted the reaction | –
3 | O=C(O)CCP(CCC(=O)O)CCC(=O)O [TCEP, tris(carboxyethyl)phosphine] | do not change | – | – | unchanged specific activity
